Data from ChEMBL document CHEMBL1909046, “DrugMatrix in vitro pharmacology data”.
pIC50, pKi: −log10 of the molar value.

Assays:
[1] = molecular target: Beta-1 adrenergic receptor (Homo sapiens, UniProt P08588); experiment: DRUGMATRIX: Adrenergic beta1 radioligand binding (ligand: [125I] Cyanopindolol); format: cell membranes, CHO-K1, Membrane; conditions: cho-k1; Not Active = under 50% inhibition at 10 µM
[2] = molecular target: Sigma non-opioid intracellular receptor 1 (Homo sapiens, UniProt Q99720); experiment: DRUGMATRIX: Sigma1 radioligand binding (ligand: [3H] Haloperidol); format: cell membranes, Jurkat, Membrane; conditions: Not Active = under 50% inhibition at 10 µM; for IC50: jurkat; for pIC50: read-out: IC50; for pKi: read-out: Ki
[3] = DRUGMATRIX: Sigma2 radioligand binding (ligand: [3H] Ifenprodil); format: cell membranes, Rattus norvegicus, Wistar, Brain, Membrane; conditions: Not Active = under 50% inhibition at 10 µM
[4] = molecular target: T1, Cholecystokinin receptor type A (Homo sapiens, UniProt P32238); format: cell membranes, Membrane; conditions: 1321-n1; note: in other assays of this panel Not Active means under 50% inhibition at 10 µM
T1 sequence (P32238 whole entry): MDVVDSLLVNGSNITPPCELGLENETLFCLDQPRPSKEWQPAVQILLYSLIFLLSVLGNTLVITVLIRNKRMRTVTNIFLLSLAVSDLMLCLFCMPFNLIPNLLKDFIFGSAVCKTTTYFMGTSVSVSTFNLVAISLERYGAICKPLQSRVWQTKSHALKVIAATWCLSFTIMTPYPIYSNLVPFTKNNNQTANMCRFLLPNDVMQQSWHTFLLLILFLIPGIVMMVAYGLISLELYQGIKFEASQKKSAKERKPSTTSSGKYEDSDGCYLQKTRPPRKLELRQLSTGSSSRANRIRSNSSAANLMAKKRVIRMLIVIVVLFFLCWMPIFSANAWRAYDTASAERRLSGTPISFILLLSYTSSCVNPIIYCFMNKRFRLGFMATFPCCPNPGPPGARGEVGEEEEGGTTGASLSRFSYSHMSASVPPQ

[5] = molecular target: cGMP-specific 3',5'-cyclic phosphodiesterase (Homo sapiens, UniProt O76074); experiment: DRUGMATRIX: Phosphodiesterase PDE5 enzyme inhibition (substrate: [3H]cGMP + cGMP); format: tissue-based; conditions: platelet; Not Active = under 50% inhibition at 10 µM
[6] = molecular target: Mitogen-activated protein kinase 3 (Homo sapiens, UniProt P27361); experiment: DRUGMATRIX: Protein Serine/Threonine Kinase, ERK1 enzyme inhibition (substrate: Myelin Basic Protein); set-up: species or system Escherichia coli; conditions: Not Active = under 50% inhibition at 10 µM
Cytochrome P450 2C9 = Cytochrome P450 2C9 (Homo sapiens, UniProt P11712); conditions: bti-tn-5b1-4; note: in other assays of this panel Not Active means under 50% inhibition at 10 µM
Sequence of Cytochrome P450 2C9 (P11712 whole entry): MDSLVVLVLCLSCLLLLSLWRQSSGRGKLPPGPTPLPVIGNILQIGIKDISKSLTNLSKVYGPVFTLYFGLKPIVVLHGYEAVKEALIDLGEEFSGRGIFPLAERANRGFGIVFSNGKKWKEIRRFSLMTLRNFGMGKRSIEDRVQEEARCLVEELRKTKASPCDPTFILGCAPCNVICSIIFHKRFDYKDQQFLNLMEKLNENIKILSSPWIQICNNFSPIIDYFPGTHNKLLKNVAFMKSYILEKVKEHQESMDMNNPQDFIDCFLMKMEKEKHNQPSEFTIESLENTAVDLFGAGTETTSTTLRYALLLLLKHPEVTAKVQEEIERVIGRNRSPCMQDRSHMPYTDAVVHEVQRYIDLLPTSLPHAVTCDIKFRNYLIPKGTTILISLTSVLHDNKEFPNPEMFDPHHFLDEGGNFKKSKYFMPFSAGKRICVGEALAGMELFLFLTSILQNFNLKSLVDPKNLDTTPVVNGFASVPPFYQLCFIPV

Sequence of Mitogen-activated protein kinase 3 (P27361 whole entry): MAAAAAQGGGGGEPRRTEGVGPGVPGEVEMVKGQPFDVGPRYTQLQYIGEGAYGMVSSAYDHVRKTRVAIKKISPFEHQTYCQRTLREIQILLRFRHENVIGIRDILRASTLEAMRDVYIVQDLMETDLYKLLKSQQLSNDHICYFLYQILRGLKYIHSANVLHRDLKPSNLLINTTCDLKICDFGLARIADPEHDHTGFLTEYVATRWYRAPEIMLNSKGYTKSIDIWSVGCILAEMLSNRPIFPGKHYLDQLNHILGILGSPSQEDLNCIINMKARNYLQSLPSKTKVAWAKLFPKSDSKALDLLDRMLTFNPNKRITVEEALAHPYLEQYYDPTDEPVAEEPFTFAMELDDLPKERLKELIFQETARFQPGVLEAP
Sequence of Sigma non-opioid intracellular receptor 1 (Q99720 whole entry): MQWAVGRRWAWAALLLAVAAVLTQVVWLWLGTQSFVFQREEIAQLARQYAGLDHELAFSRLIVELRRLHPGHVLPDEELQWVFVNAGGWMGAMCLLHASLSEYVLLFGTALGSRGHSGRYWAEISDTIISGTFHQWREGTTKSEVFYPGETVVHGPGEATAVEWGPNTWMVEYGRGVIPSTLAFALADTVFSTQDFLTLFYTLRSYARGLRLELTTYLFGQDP
Sequence of Beta-1 adrenergic receptor (P08588 whole entry): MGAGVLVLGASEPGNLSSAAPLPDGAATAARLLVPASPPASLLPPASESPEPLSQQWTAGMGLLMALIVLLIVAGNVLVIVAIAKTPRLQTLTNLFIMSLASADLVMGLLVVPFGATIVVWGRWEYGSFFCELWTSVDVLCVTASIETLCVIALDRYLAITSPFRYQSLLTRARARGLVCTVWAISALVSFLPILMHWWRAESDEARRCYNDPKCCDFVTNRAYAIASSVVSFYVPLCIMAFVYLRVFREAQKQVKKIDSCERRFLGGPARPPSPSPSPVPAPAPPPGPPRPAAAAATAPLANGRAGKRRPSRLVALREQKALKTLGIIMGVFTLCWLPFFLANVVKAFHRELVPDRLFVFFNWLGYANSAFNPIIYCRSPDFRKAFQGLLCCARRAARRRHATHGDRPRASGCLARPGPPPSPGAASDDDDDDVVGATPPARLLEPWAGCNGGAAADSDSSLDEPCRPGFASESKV

## COc1cc(N)nc2[nH]c(-c3ccc(F)cc3)c(-c3ccncc3)c12
[1]
  IC50: Not Active
[2]
  IC50: Not Active
[3]
  IC50: Not Active
  Ki: Not Active
[4]
  IC50: Not Active
[5]
  IC50: Not Active
[6]
  IC50: Not Active

## CNS(=O)(=O)Cc1ccc2[nH]cc(CCN(C)C)c2c1
[1]
  IC50: Not Active
[2]
  IC50: Not Active
[3]
  IC50: Not Active
  Ki: Not Active
[4]
  IC50: Not Active
[5]
  IC50: Not Active
[6]
  IC50: Not Active
Cytochrome P450 2C9
  IC50: Not Active
  Ki: Not Active

## CCCc1nn(C)c2c(=O)[nH]c(-c3cc(S(=O)(=O)N4CCN(C)CC4)ccc3OCC)nc12
[1]
  IC50: Not Active
[2]
  IC50: Not Active
[3]
  IC50: Not Active
  Ki: Not Active
[4]
  IC50: Not Active
[6]
  IC50: Not Active
Cytochrome P450 2C9
  IC50: Not Active
  Ki: Not Active

## COc1ccc(/C=C/C(=O)Nc2ccccc2C(=O)O)cc1OC
[1]
  IC50: Not Active
[2]
  IC50: Not Active
[3]
  IC50: Not Active
  Ki: Not Active
[4]
  IC50: Not Active
[5]
  IC50: Not Active
[6]
  IC50: Not Active
Cytochrome P450 2C9
  IC50: Not Active
  Ki: Not Active

## CCOC(N)=O
[1]
  IC50: Not Active
[2]
  IC50: Not Active
[3]
  IC50: Not Active
  Ki: Not Active
[4]
  IC50: Not Active
[5]
  IC50: Not Active
[6]
  IC50: Not Active
Cytochrome P450 2C9
  IC50: Not Active
  Ki: Not Active

## CC(=O)Nc1nnc(S(N)(=O)=O)s1 [ACETAZOLAMIDE]
[1]
  IC50: Not Active
[2]
  IC50: Not Active
[4]
  IC50: Not Active
[5]
  IC50: Not Active
[6]
  IC50: Not Active
Cytochrome P450 2C9
  IC50: Not Active
  Ki: Not Active

## O=c1[nH]c2ccccc2n1CCCN1CCC(n2c(=O)[nH]c3cc(Cl)ccc32)CC1 [DOMPERIDONE]
[1]
  IC50: Not Active
[2]
  IC50: Not Active
[4]
  IC50: Not Active
[5]
  IC50: Not Active
[6]
  IC50: Not Active

## CC1=C(CC(=O)O)c2cc(F)ccc2/C1=C\c1ccc(S(C)(=O)=O)cc1 [EXISULIND]
[1]
  IC50: Not Active
[2]
  IC50: Not Active
[3]
  IC50: Not Active
  Ki: Not Active
[4]
  IC50: Not Active
[5]
  IC50: Not Active
[6]
  IC50: Not Active
Cytochrome P450 2C9
  IC50: Not Active
  Ki: Not Active

## CC(C)OC(=O)C(C)(C)Oc1ccc(C(=O)c2ccc(Cl)cc2)cc1 [FENOFIBRATE]
[1]
  IC50: Not Active
[2]
  IC50: Not Active
[4]
  IC50: Not Active
[5]
  IC50: Not Active
[6]
  IC50: Not Active
Cytochrome P450 2C9
  IC50: Not Active
  Ki: Not Active

## OCCN1CCN(CCCN2c3ccccc3Sc3ccc(C(F)(F)F)cc32)CC1 [FLUPHENAZINE]
[1]
  IC50: Not Active
[2]
  pIC50: 7.70
  pKi: 8.07
[4]
  IC50: Not Active
[5]
  IC50: Not Active
[6]
  IC50: Not Active

## CN1C2CCCC1CC(NC(=O)c1nn(C)c3ccccc13)C2 (stereo not given) [GRANISETRON]
[1]
  IC50: Not Active
[2]
  IC50: Not Active
[4]
  IC50: Not Active
[5]
  IC50: Not Active
[6]
  IC50: Not Active
Cytochrome P450 2C9
  IC50: Not Active
  Ki: Not Active

## Nc1nc2c(c(=O)[nH]1)N(C=O)C(CNc1ccc(C(=O)N[C@@H](CCC(=O)O)C(=O)O)cc1)CN2 (stereo not given in full) [LEUCOVORIN]
[1]
  IC50: Not Active
[2]
  IC50: Not Active
[3]
  IC50: Not Active
  Ki: Not Active
[4]
  IC50: Not Active
[5]
  IC50: Not Active
Cytochrome P450 2C9
  IC50: Not Active
  Ki: Not Active

## C[C@@H](O)[C@H]1C(=O)N2C(C(=O)O)=C(S[C@@H]3CN[C@H](C(=O)N(C)C)C3)[C@H](C)[C@H]12 [MEROPENEM]
[1]
  IC50: Not Active
[2]
  IC50: Not Active
[3]
  IC50: Not Active
  Ki: Not Active
[4]
  IC50: Not Active
[5]
  IC50: Not Active
[6]
  IC50: Not Active
Cytochrome P450 2C9
  IC50: Not Active
  Ki: Not Active

## CC[C@@H](CO)NC(=O)[C@@H]1C=C2c3cccc4c3c(cn4C)C[C@H]2N(C)C1 [METHYSERGIDE]
[4]
  IC50: Not Active
[5]
  IC50: Not Active
[6]
  IC50: Not Active
Cytochrome P450 2C9
  IC50: Not Active
  Ki: Not Active

## CCN(CC)CC#CCOC(=O)C(O)(c1ccccc1)C1CCCCC1 (stereo not given) [OXYBUTYNIN]
[1]
  IC50: Not Active
[2]
  pIC50: 7.62
  pKi: 7.99
[4]
  IC50: Not Active
[5]
  IC50: Not Active
[6]
  IC50: Not Active
Cytochrome P450 2C9
  IC50: Not Active
  Ki: Not Active

## O=P(O)(O)C(O)(Cc1cccnc1)P(=O)(O)O [RISEDRONIC ACID]
[1]
  IC50: Not Active
[2]
  IC50: Not Active
[3]
  IC50: Not Active
  Ki: Not Active
[4]
  IC50: Not Active
[5]
  IC50: Not Active
[6]
  IC50: Not Active
Cytochrome P450 2C9
  IC50: Not Active
  Ki: Not Active

## CN(CCOc1ccc(CC2SC(=O)NC2=O)cc1)c1ccccn1 (stereo not given) [ROSIGLITAZONE]
[1]
  IC50: Not Active
[2]
  IC50: Not Active
[3]
  IC50: Not Active
  Ki: Not Active
[4]
  IC50: Not Active
[5]
  IC50: Not Active
[6]
  IC50: Not Active
Cytochrome P450 2C9
  IC50: Not Active
  Ki: Not Active

## C=C(C)[C@H]1Cc2c(ccc3c2O[C@@H]2COc4cc(OC)c(OC)cc4[C@@H]2C3=O)O1 [ROTENONE]
[1]
  IC50: Not Active
[2]
  IC50: Not Active
[3]
  IC50: Not Active
  Ki: Not Active
[4]
  IC50: Not Active
[5]
  IC50: Not Active
[6]
  IC50: Not Active
Cytochrome P450 2C9
  IC50: Not Active
  Ki: Not Active

## C#CCN(C)[C@H](C)Cc1ccccc1 [SELEGILINE]
[1]
  IC50: Not Active
[2]
  IC50: Not Active
[3]
  IC50: Not Active
  Ki: Not Active
[4]
  IC50: Not Active
[5]
  IC50: Not Active
[6]
  IC50: Not Active
Cytochrome P450 2C9
  IC50: Not Active
  Ki: Not Active

## CO[C@H]1C[C@@H]2CC[C@@H](C)[C@@](O)(O2)C(=O)C(=O)N2CCCC[C@H]2C(=O)O[C@H]([C@H](C)C[C@@H]2CC[C@@H](O)[C@H](OC)C2)CC(=O)[C@H](C)/C=C(\C)[C@@H](O)[C@@H](OC)C(=O)[C@H](C)C[C@H](C)/C=C/C=C/C=C/1C [SIROLIMUS]
[1]
  IC50: Not Active
[2]
  IC50: Not Active
[3]
  IC50: Not Active
  Ki: Not Active
[4]
  IC50: Not Active
[5]
  IC50: Not Active
[6]
  IC50: Not Active

## C[C@]12CC[C@H]3[C@@H](CCC4=CC(=O)CC[C@@]43C)[C@@H]1CC[C@@H]2O [TESTOSTERONE]
[1]
  IC50: Not Active
[2]
  IC50: Not Active
[3]
  IC50: Not Active
  Ki: Not Active
[4]
  IC50: Not Active
[5]
  IC50: Not Active
[6]
  IC50: Not Active

## CC(C)(C)NC[C@H](O)COc1nsnc1N1CCOCC1 [TIMOLOL]
[2]
  IC50: Not Active
[3]
  IC50: Not Active
  Ki: Not Active
[4]
  IC50: Not Active
[5]
  IC50: Not Active
[6]
  IC50: Not Active
Cytochrome P450 2C9
  IC50: Not Active
  Ki: Not Active

## CCS(=O)(=O)CCn1c([N+](=O)[O-])cnc1C [TINIDAZOLE]
[1]
  IC50: Not Active
[2]
  IC50: Not Active
[3]
  IC50: Not Active
  Ki: Not Active
[4]
  IC50: Not Active
[5]
  IC50: Not Active
[6]
  IC50: Not Active

## O=c1n(CCCN2CCN(c3cccc(Cl)c3)CC2)nc2ccccn12 [TRAZODONE]
[1]
  IC50: Not Active
[2]
  pIC50: 5.66
  pKi: 6.03
[4]
  IC50: Not Active
[5]
  IC50: Not Active
[6]
  IC50: Not Active
Cytochrome P450 2C9
  IC50: Not Active
  Ki: Not Active

## COc1ccc(CN2CCNCC2)c(OC)c1OC [TRIMETAZIDINE]
[1]
  IC50: Not Active
[2]
  IC50: Not Active
[3]
  IC50: Not Active
  Ki: Not Active
[4]
  IC50: Not Active
[5]
  IC50: Not Active
[6]
  IC50: Not Active

## COc1cc(C(=O)NS(=O)(=O)c2ccccc2C)ccc1Cc1cn(C)c2ccc(NC(=O)OC3CCCC3)cc12 [ZAFIRLUKAST]
[1]
  IC50: Not Active
[2]
  IC50: Not Active
[3]
  IC50: Not Active
  Ki: Not Active
[4]
  IC50: Not Active
[5]
  IC50: Not Active
[6]; read-out: IC50
  pIC50: 5.36
